The values that follow come from patent US20110218188A1, “SUBSTITUTED (PYRIDYL)-AZINYLAMINE DERIVATIVES AS FUNGICIDES” (priority 2008, published 2011).

Marks after values point to notes of the source that are not given here.

A short description of one series: Measurement of logP values by HPLC on reversed phase columns (EEC directive 79/831 Annex V.A8). It counts as physicochemical. To be noted: pH 2.3.
Consider `CCCN(CCO)C(=O)c1cc(-c2ncnc(Nc3cccc(Cl)c3)n2)ccn1` [Example B181], for which the “logP [b]” value is 2.51[b]. With `O=C(c1cccc(-c2ccnc(Nc3ccnc(Cl)c3)n2)n1)N1CCC1` [Example A35], the logP was 2.21^[b].

Staying with this series, now noted: pH 2.7.
On to `C=CCN(C)C(=O)c1cc(-c2ncnc(Nc3cccc(Cl)c3)n2)ccn1` [Example B127], for which the logP is reported as 2.96.

On to `COc1cccc(Nc2ncnc(-c3ccnc(C(=O)N(C)CC(C)C)c3)n2)c1` [Example B277], for which the logP is recorded as 2.90. `CC(C)N(C)C(=O)c1cc(-c2ncnc(Nc3ccc(Cl)c(C(F)F)c3)n2)ccn1` [Example B391]: the logP turned out to be 3.15.

Turning to `CN(CCC#N)C(=O)c1cc(-c2ccnc(Nc3ccnc(Cl)c3)n2)ccn1` [Example A24], the logP turned out to be 1.78. As to `CCCC(=O)O/N=C(/N)c1cc(-c2ncnc(Nc3cccc(Cl)c3)n2)ccn1` [B106], the logP is recorded as 3.8.

`CN(CCO)C(=O)c1cc(-c2ncnc(Nc3cccc(Cl)c3)n2)ccn1` [Example B136] showed a lipophilicity (logP) of 2.04. `CCCNC(=O)c1cc(-c2ncnc(Nc3cccc(Cl)c3)n2)ccn1` [B103] registered a logP of 3.62.

The compound `CSc1cccc(Nc2ncnc(-c3ccnc(C(=O)NC(C)C)c3)n2)c1` [B217] came in with a logP of 3.53. On the same count and under the same terms, to `COCc1cccc(Nc2ncnc(-c3ccnc(C(=O)N(C)CC4CC4)c3)n2)c1` [Example B242] belongs 2.58; to `O=C(NC1CCCC1)c1cc(-c2ncnc(Nc3cccc(Cl)c3)n2)ccn1` [B71], 4.03; to `CSc1cccc(Nc2ncnc(-c3ccnc(C(=O)N4CCCC4)c3)n2)c1` [B211], 2.82.

In turn, `CCCC(C)NC(=O)c1cc(-c2ncnc(Nc3cccc(SC)c3)n2)ccn1` (stereo not shown) [B221] came in with a logP of 4.44. Still for that read-out and setting: to `CCN(C)C(=S)c1cc(-c2ncnc(Nc3cccc(C(F)F)c3)n2)ccn1` [Example B341] belongs 2.94; to `COc1ccc(Nc2ncnc(-c3ccnc(C(=O)N(C)CC4CC4)c3)n2)cn1` [Example C6], 2.2; to `CN(C)C(=O)c1cc(-c2ncnc(Nc3ccc(F)c(C(F)F)c3)n2)ccn1` [Example B393], 2.25. Take `O=C(c1cc(-c2ncnc(Nc3cccc(Cl)c3)n2)ccn1)N1CCCCC1` [Example B115]: the logP was 3.1.

The compound `CCCN(C)C(=O)c1cc(-c2ncnc(Nc3ccccc3)n2)ccn1` [Example B312] registered a logP of 2.55. Still for that read-out and setting: the value for `CCN(CC)CC(C)NC(=O)c1cc(-c2ncnc(Nc3cccc(Cl)c3)n2)ccn1` (stereo not shown) [Example B114] was 1.9; that for `CN(CC1CCCO1)C(=O)c1cc(-c2ncnc(Nc3cccc(Cl)c3)n2)ccn1` (stereo not shown) [Example B160] was 2.76. In turn, `O=C(c1cc(-c2ncnc(Nc3cccc(Cl)c3)n2)ccn1)N1CCC(O)CC1` [Example B173] had a logP of 2.04. Turning to `CC(C)N(C)C(=O)c1cc(-c2ncnc(Nc3cccc(OC(F)(F)F)c3)n2)ccn1` [B269], the logP is listed as 3.29.

`NC(=S)c1cc(-c2ncnc(Nc3cccc(Cl)c3)n2)ccn1` [Example B119] yielded a logP of 3.12. The logP values of the last two compounds are within 0.2 log units of each other. Same read-out and setting: the value for `CC(C)CN(C)C(=O)c1cc(-c2ncnc(Nc3ccncc3)n2)ccn1` [Example C18] was 1.19; that for `Cc1ccc(Nc2ncnc(-c3ccnc(C(=O)N(C)C)c3)n2)cc1Cl` [Example B359] was 2.71. Regarding `CCN(CC)C(=O)c1cc(-c2ncnc(Nc3cccc(Cl)c3)n2)ccn1` [Example B130], the logP worked out at 3.06.

The compound `CC(C)N(C)C(=O)c1cc(-c2ncnc(Nc3cccc(F)c3)n2)ccn1` [Example B8] came in with a logP of 2.67. `NC(=NO)c1cc(-c2ncnc(Nc3cccc(Cl)c3)n2)ccn1` [Example B78, 4-{4-[(3-chlorophenyl)amino]-1,3,5-triazin-2-yl}-N′-hydroxypyridine-2-carboximidamide]: the chromatographic logP was 2.28.

Consider `CCN(CC)C(=S)c1cc(-c2ncnc(Nc3cccc(C(F)F)c3)n2)ccn1` [Example B328], for which the logP is on record as 3.27. Still for that read-out and setting: to `CCC(=NOC1CCCC1)c1cc(-c2ncnc(Nc3cccc(Cl)c3)n2)ccn1` (mixture of isomers) [B47] belongs 6.39; to `NC(=S)c1cc(-c2ncnc(Nc3cccc(C(F)F)c3)n2)ccn1` [B320], 3.05; to `CN(CC1CC1)C(=O)c1cc(-c2ncnc(Nc3cccc(OC(F)(F)F)c3)n2)ccn1` [Example B265], 3.48.

For `N#CC1CCN(C(=O)c2cc(-c3ncnc(Nc4cccc(Cl)c4)n3)ccn2)CC1` [Example B170], the logP amounted to 2.59.

`CCN(CC)C(=O)c1cc(-c2ncnc(Nc3cccc(C#N)c3)n2)ccn1` [Example B292] yielded a logP of 2.45. Compound `CCON=C(CC)c1cc(-c2ncnc(Nc3cccc(Cl)c3)n2)ccn1` (mixture of isomers) [Example B40] registered a logP of 5.1.

Take `COC[C@H](C)NC(=O)c1cc(-c2ncnc(Nc3cccc(Cl)c3)n2)ccn1` [B52]: the logP was 3.39. The same measure, in the same setting: to `CN(CC1CC1)C(=O)c1cc(-c2ncnc(Nc3ccsc3)n2)ccn1` [Example C15] belongs 2.53. On the same count and under the same terms, to `O=C(c1cc(Nc2nccc(-c3ccnc(C(=O)N4CC=CCC4)c3)n2)ccn1)N1CC=CCC1` [Example A3] belongs 1.6. The compound `O=C(O)c1cc(-c2ncnc(Nc3ccsc3)n2)ccn1` [Example C28, 4-[4-(3-thienylamino)-1,3,5-triazin-2-yl]pyridine-2-carboxylic acid] had a chromatographic logP of 1.62. Compound `CN(CCC#N)C(=O)c1cc(-c2ncnc(Nc3ccc(F)c(C(F)F)c3)n2)ccn1` [Example B397] gave a logP of 2.37. The same measure, in the same setting: to `C#CCN(c1cccc(F)c1)c1ncnc(-c2ccnc(C(=S)N(C)CC)c2)n1` [B345] belongs 3.25; to `CCC(C)NC(=O)c1cc(-c2ncnc(Nc3cccc(SC)c3)n2)ccn1` (stereo not shown) [B218], 3.94. For `CN(C)C(=O)c1cc(-c2ncnc(Nc3cccc(C(F)F)c3)n2)ccn1` [Example B288], the logP stood at 2.17.

As for `CN(C)C(=O)c1cc(-c2ccnc(Nc3ccnc(Cl)c3)n2)ccn1` [Example A32], the logP came to 1.69. On to `CC(C)N(C)C(=O)c1cc(-c2ncnc(Nc3ccc(F)c(C(F)F)c3)n2)ccn1` [Example B396], for which the logP is reported as 2.78. `O=C(c1cc(-c2ncnc(Nc3cccc(Cl)c3)n2)ccn1)N1CCOCC1` [Example B116] showed a logP of 2.39. In the case of `CSc1cccc(Nc2ncnc(-c3ccnc(C(=O)NCC4CC4)c3)n2)c1` [B219], the logP came to 3.64. `CN(C(=O)c1cc(-c2ncnc(Nc3cccc(Cl)c3)n2)ccn1)C1CCCC1` [Example B149] returned a logP of 3.51. Same read-out and setting: the value for `CCN(C)C(=S)c1cc(-c2ncnc(Nc3cccc(OC)c3)n2)ccn1` [Example B281] was 2.78; that for `CCC(=NOCc1c(Cl)cccc1Cl)c1cc(-c2ncnc(Nc3cccc(Cl)c3)n2)ccn1` (mixture of isomers) [B69] was 6.53; that for `CCCN(CC)C(=O)c1cc(-c2ncnc(Nc3cccc(Cl)c3)n2)ccn1` [Example B125] was 3.46.

Compound `COc1ccc(Nc2ncnc(-c3ccnc(C(=O)N(C)C)c3)n2)cn1` [Example C8] displayed a logP of 1.57. The compound `O=C(c1cc(-c2ncnc(Nc3cccc(Cl)c3)n2)ccn1)N1CCC(C(F)(F)F)CC1` [B120] returned a logP of 3.55. Same read-out and setting: the value for `CCCC#CCON=C(C)c1cc(-c2ncnc(Nc3cccc(Cl)c3)n2)ccn1` (mixture of isomers) [B35] was 5.16; that for `CN(C)C(=O)c1cc(-c2ncnc(Nc3ccc(Cl)c(C(F)F)c3)n2)ccn1` [Example B385] was 2.59; that for `COCCN(C)C(=O)c1cc(-c2ncnc(Nc3cccc(COC)c3)n2)ccn1` [Example B247] was 2.05. The compound `CC(=NNCCC#N)c1cc(-c2ncnc(Nc3cccc(Cl)c3)n2)ccn1` [Example B81, 3-{2-[1-(4-{4-[(3-chlorophenyl)amino]-1,3,5-triazin-2-yl}pyridin-2-yl)ethylidene]hydrazinyl}propanenitrile] gave a chromatographic logP of 2.5. In turn, `CN(C)C(=S)c1cc(-c2ncnc(Nc3ccc(F)c(C(F)F)c3)n2)ccn1` [Example B332] gave a logP of 2.73. In turn, `CCCCCCN(C)C(=O)c1cc(-c2ncnc(Nc3cccc(Cl)c3)n2)ccn1` [Example B128] returned a logP of 4.34. `O=C1CN(C(=O)c2cc(-c3ncnc(Nc4cccc(Cl)c4)n3)ccn2)CN1` [B168] returned a log partition coefficient (logP) of 2.15. Consider `CCN(C)C(=O)c1cc(-c2ncnc(Nc3ccc(Cl)c(C(F)F)c3)n2)ccn1` [Example B386], for which the logP is listed as 2.88.

The compound `CN(CC1CC1)C(=S)c1cc(-c2ncnc(Nc3cccc(Cl)c3)n2)ccn1` [Example B330] came in with a logP of 3.76. Same read-out and setting: the value for `CCCN(C)C(=O)c1cc(-c2ncnc(Nc3cccc(OC(F)F)c3)n2)ccn1` [Example B299] was 2.86; that for `CN(C)C(=O)c1cc(-c2ncnc(Nc3ccc(F)cc3)n2)ccn1` [Example B18] was 2.02. On the same count and under the same terms, the value for `CC#CCON=C(CC)c1cc(-c2ncnc(Nc3cccc(Cl)c3)n2)ccn1` (mixture of isomers) [B53] was 4.91; that for `C#CCON=C(CC)c1cc(-c2ncnc(Nc3cccc(Cl)c3)n2)ccn1` (mixture of isomers) [B80] was 4.73; that for `CC(C)N(C)C(=O)c1cc(-c2ncnc(Nc3ccc(F)c(Cl)c3)n2)ccn1` [B208] was 3.02. Turning to `CCC(=NOCc1ccccc1)c1cc(-c2ncnc(Nc3cccc(Cl)c3)n2)ccn1` (mixture of isomers) [B72], the logP was determined as 5.65. Same read-out and setting: to `CCN(C)C(=S)c1cc(-c2ncnc(N(C(=O)COC)c3cccc(F)c3)n2)ccn1` [Example B338] belongs 2.62. The same measure, in the same setting: the value for `CCCN(C)C(=O)c1cc(-c2ncnc(Nc3cccc(COC)c3)n2)ccn1` [Example B241] was 2.48. Take `O=C(c1cc(-c2ccnc(Nc3ccnc(Cl)c3)n2)ccn1)N1CC=CCC1` [Example A2]: the logP stood at 2.2.

Staying with this series, now noted: pH 7.8.
With `CCCN(CCC)C(=O)c1cc(-c2ccnc(Nc3ccnc(Cl)c3)n2)ccn1` [Example A11], the logP is 2.88^[c].
